Test results taken from the supplement of paper PMC10307832.

Legend:
Test in all cases: relative viability (nuclei count vs DMSO), 5 days (fraction); higher = more cells survive
[1] = compound: CC1=NC=CC(=C1)C2=CC=C(C=C2)CC(=O)NC3=CC=C(C=C3)C4=CN=CC=C4 [Wnt-C59] + COc1cc2c(Oc3ccc(NC(=O)C4(C(=O)Nc5ccc(F)cc5)CC4)cc3F)ccnc2cc1OCCCN1CCOCC1 [Foretinib] (partner 0.25 µM)
Procedure, shortened: (§1)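 Relative viability was taken as the ratio of nuclei in treated wells to nuclei in vehicle wells. Lung cancer cell lines in 1536-well plates received compounds by pin tool one day after seeding, either one drug alone or a fixed anchor-drug dose plus five library-drug doses (not always all listed) in √10 steps. Nuclei were counted on 4× images after 5 days of treatment, and values are medians of duplicate plates.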

[2] = compound: CC1=NC=CC(=C1)C2=CC=C(C=C2)CC(=O)NC3=CC=C(C=C3)C4=CN=CC=C4 [Wnt-C59] + CC(=O)c1c(C)c2cnc(Nc3ccc(N4CCNCC4)cn3)nc2n(C2CCCC2)c1=O [Palbociclib] (partner 0.5 µM)
Procedure, shortened: as §1

[3] = compound: CS(=O)(=O)CCNCc1ccc(-c2ccc3ncnc(Nc4ccc(OCc5cccc(F)c5)c(Cl)c4)c3c2)o1 [Lapatinib] + C[C@]1(O)C[C@@H](c2nc(-c3ccc4ccc(-c5ccccc5)nc4c3)c3c(N)nccn32)C1 [Linsitinib] (partner 1 µM)
Procedure, shortened: as §1

[4] = compound: CS(=O)(=O)CCNCc1ccc(-c2ccc3ncnc(Nc4ccc(OCc5cccc(F)c5)c(Cl)c4)c3c2)o1 [Lapatinib] + Nc1nc2[nH]cc(CCc3ccc(C(=O)N[C@@H](CCC(=O)O)C(=O)O)cc3)c2c(=O)[nH]1 [Pemetrexed] (partner 0.2 µM)
Procedure, shortened: as §1

Cell Line	relative viability ([1]; first compound 0.001 µM)	relative viability ([1]; first compound 0.01 µM)	relative viability ([1]; first compound 0.03162 µM)	relative viability ([1]; first compound 0.1 µM)	relative viability ([2]; first compound 0.001 µM)	relative viability ([2]; first compound 0.01 µM)	relative viability ([2]; first compound 0.03162 µM)	relative viability ([2]; first compound 0.1 µM)	relative viability ([3]; first compound 0.02 µM)	relative viability ([3]; first compound 0.06325 µM)	relative viability ([3]; first compound 0.2 µM)	relative viability ([3]; first compound 0.6325 µM)	relative viability ([3]; first compound 2 µM)	relative viability ([4]; first compound 0.02 µM)	relative viability ([4]; first compound 0.06325 µM)	relative viability ([4]; first compound 0.2 µM)	relative viability ([4]; first compound 0.6325 µM)	relative viability ([4]; first compound 2 µM)
201T	1.19	1.15	1.04	1.15	0.347	0.352	0.359	0.358	0.96	0.92	1	1.04	0.909	0.377	0.288	0.298	0.359	0.326
A549	1.09	0.969	0.974	0.906	–	–	–	–	–	0.433	0.555	0.473	0.425	–	–	–	–	–
A-427	1.02	0.977	1.29	1.24	0.55	0.513	0.509	0.562	–	1.05	1.11	1.17	1.14	0.928	0.949	0.946	1.06	0.963
ABC-1	0.982	1.16	1.07	0.97	0.621	0.693	1.03	0.923	–	0.813	0.871	0.773	0.504	–	–	–	–	–
BEN	0.877	0.615	0.786	0.747	0.477	0.437	0.538	0.534	0.91	0.858	0.878	0.769	0.8	0.409	0.847	0.683	0.802	0.71
CAL-12T	1.28	1.1	1.06	1.09	0.483	0.375	0.556	0.394	0.761	0.83	0.634	0.725	0.579	1.16	1.31	1.37	1.04	0.744
COR-L23	0.993	0.916	0.853	0.913	0.347	0.279	0.321	0.264	0.955	0.87	0.986	0.945	0.875	0.214	0.189	0.2	0.204	0.203
COR-L 105	1.13	0.722	1.03	0.911	0.362	0.373	0.379	0.438	0.796	0.772	0.954	0.703	0.272	1.09	1.16	0.953	0.68	0.619
Calu-6	0.856	0.903	0.936	0.834	–	–	–	–	0.891	0.953	0.947	0.954	0.848	–	–	–	–	–
ChaGo-K-1	1.01	0.872	0.978	0.996	0.97	0.885	0.953	0.957	–	–	–	–	–	0.281	0.274	0.265	0.264	0.253
EBC-1	0.112	0.11	0.126	0.106	–	–	–	–	0.904	0.883	0.888	0.938	0.886	–	–	–	–	–
EKVX	0.763	0.725	0.833	0.714	0.389	–	0.327	0.179	0.922	0.757	0.956	0.579	0.179	–	0.361	0.344	0.274	0.355
EMC-BAC-2	0.946	0.964	0.967	0.561	0.496	0.437	0.438	0.413	0.755	0.732	0.698	0.623	0.563	–	0.452	0.475	0.475	0.45
EPLC-272H	0.722	0.667	0.831	0.697	0.306	0.277	0.352	0.316	–	0.988	1.11	0.959	1.01	0.342	0.235	0.337	0.288	0.21
H3255	0.944	0.892	1.12	0.951	0.354	0.331	0.302	0.311	0.92	0.767	0.783	0.693	0.196	0.514	0.514	0.544	0.504	0.407
HARA	0.823	0.765	1.01	0.841	0.27	0.231	0.325	0.22	0.782	0.686	0.808	0.755	0.243	0.222	0.225	0.274	0.277	0.224
HCC-15	1.09	1.09	1.04	0.992	0.769	0.735	0.7	0.717	–	0.857	0.954	0.814	0.599	–	0.212	0.223	0.212	0.203
HCC-44	–	–	–	–	0.982	0.977	1.04	1	0.709	0.648	0.628	0.627	0.493	0.681	0.653	0.651	0.614	0.685
HCC-78	0.496	0.511	0.518	0.515	0.476	0.488	0.494	0.455	–	0.383	0.461	0.441	0.448	–	0.832	0.882	0.841	0.936
HCC-366	0.896	0.975	0.922	0.89	0.461	0.376	0.402	0.386	–	0.404	0.702	0.746	0.472	–	0.239	0.187	0.149	0.118
HCC-827	1.08	1	1.03	1.04	0.499	0.524	0.492	0.511	0.944	0.986	0.928	1.05	0.936	0.26	0.263	0.285	0.239	0.202
HOP-62	1.1	1.06	1.07	1.19	0.468	0.403	0.49	0.493	–	0.923	0.91	0.857	1.01	–	0.318	0.299	0.365	0.389

Cell Line	relative viability ([1]; first compound 0.001 µM)	relative viability ([1]; first compound 0.01 µM)	relative viability ([1]; first compound 0.03162 µM)	relative viability ([1]; first compound 0.1 µM)	relative viability ([2]; first compound 0.001 µM)	relative viability ([2]; first compound 0.01 µM)	relative viability ([2]; first compound 0.03162 µM)	relative viability ([2]; first compound 0.1 µM)	relative viability ([3]; first compound 0.02 µM)	relative viability ([3]; first compound 0.06325 µM)	relative viability ([3]; first compound 0.2 µM)	relative viability ([3]; first compound 0.6325 µM)	relative viability ([3]; first compound 2 µM)	relative viability ([4]; first compound 0.02 µM)	relative viability ([4]; first compound 0.06325 µM)	relative viability ([4]; first compound 0.2 µM)	relative viability ([4]; first compound 0.6325 µM)	relative viability ([4]; first compound 2 µM)
IA-LM	1.23	1.01	1.11	1.03	–	–	–	–	0.655	0.605	0.583	0.541	0.792	–	–	–	–	–
LC-2-ad	0.936	0.947	1.02	0.947	0.484	0.509	0.536	0.505	–	0.817	0.799	0.694	0.585	–	0.29	0.264	0.271	0.232
LCLC-97TM1	1.03	0.949	1.03	0.896	0.254	0.228	0.216	0.248	–	–	0.186	0.198	0.187	–	0.128	0.184	0.168	0.176
LCLC-103H	0.752	0.891	0.889	0.641	0.462	0.509	0.487	0.472	–	0.978	0.998	0.955	1.08	0.558	0.437	0.47	0.494	0.425
LK-2	1.28	1.02	1.46	1.25	0.524	0.739	0.705	0.535	0.704	0.487	0.377	0.66	0.575	0.137	–	0.261	–	0.264
LOU-NH91	0.941	0.764	0.988	0.92	0.512	0.573	0.564	0.513	0.861	0.761	0.753	0.637	0.464	0.377	0.41	0.39	0.415	0.458
LU99A	0.845	0.853	0.963	0.831	0.451	0.372	0.446	0.417	0.534	0.511	0.581	0.565	0.561	0.203	0.161	0.223	0.178	0.182
LXF-289	0.991	0.98	1.01	0.979	0.624	0.551	0.602	0.606	0.983	0.913	0.982	0.902	0.816	0.891	0.901	0.884	0.844	0.768
NCI-H23	0.952	0.97	0.967	1.02	0.51	0.508	0.521	0.474	–	–	0.508	0.588	0.462	–	–	0.782	0.58	0.529
NCI-H522	–	–	–	–	0.912	1.04	1.15	0.892	–	–	–	–	–	–	0.794	0.875	0.994	0.781
NCI-H596	0.885	0.899	0.835	0.898	–	–	–	–	1.11	1.02	1.09	1.19	0.839	–	0.505	0.531	0.504	0.494
NCI-H727	0.983	0.917	0.887	0.904	0.607	0.678	0.627	0.733	0.259	0.207	0.278	0.256	0.236	–	–	–	–	–
NCI-H1299	1.15	1.06	1.05	1.11	–	–	–	–	0.973	0.923	0.98	1	1.05	–	–	–	–	–
NCI-H1563	0.911	0.931	0.926	0.898	–	–	–	–	1.12	1.13	1.03	1.2	1.12	0.651	0.862	0.652	0.843	0.666
NCI-H1623	0.886	0.732	0.989	0.893	–	–	–	–	–	–	–	–	–	–	–	–	–	–
NCI-H1648	–	–	–	–	0.288	0.241	0.259	0.23	–	–	–	–	–	–	0.62	0.789	0.636	0.64
NCI-H1650	1.26	1.2	1.31	1.08	0.341	0.321	0.318	0.378	–	–	–	–	–	0.364	0.377	0.395	0.337	0.345
NCI-H1703	0.346	0.279	0.355	0.348	–	–	–	–	0.695	0.642	0.888	0.512	0.662	–	–	–	–	–
NCI-H1792	–	–	–	–	0.673	0.655	0.672	0.656	0.456	0.455	0.532	0.533	0.431	–	–	0.936	0.75	0.656
NCI-H2170	0.942	0.991	1.06	1.01	0.393	0.397	0.416	0.367	–	–	–	–	–	0.272	0.249	0.271	0.274	0.198
NCI-H2342	1.06	1.16	1.18	1.07	0.491	0.488	0.55	0.504	–	–	–	–	–	0.576	0.712	0.723	0.776	0.714
SW 900	1.14	0.667	1.18	1.01	0.48	0.461	0.608	0.54	–	–	–	–	–	–	0.432	0.494	0.471	0.45
